From ChEMBL document CHEMBL1201862, “PubChem BioAssay data set” (2004)
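Briefly, cells in 96-well plates were exposed to five compound concentrations for 48 h, and endpoints were estimated by linear interpolation. At the GI50, growth is halved.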 Calls of active or inactive are those of the source. Rule as the data show it: active = GI50 up to about 1.1 µM and inactive = higher.

How the values were obtained:
Assay in all cases: NCI tumour cell line growth inhibition, 48 h
UACC-257 = system: UACC-257
UACC-62 = system: UACC-62
LXFL 529 = system: LXFL 529
OVCAR-8 = system: OVCAR-8
KM-20L2 = system: KM-20L2
SF-268 = system: SF-268
HCC 2998 = system: HCC 2998
LOX IMVI = system: LOX IMVI
HCT-15 = system: HCT-15
RXF 631 = system: RXF 631
HT-29 = system: HT-29
HOP-18 = system: HOP-18
CAKI-1 = system: CAKI-1
HCT-116 = system: HCT-116
SNB-75 = system: SNB-75
HL-60 = system: HL-60
A549 = system: A549
K562 = system: K562
HOP-92 = system: HOP-92
SK-MEL-2 = system: SK-MEL-2
RPMI-8226 = system: RPMI-8226
SK-MEL-28 = system: SK-MEL-28
DLD-1 = system: DLD-1
OVCAR-4 = system: OVCAR-4
ACHN = system: ACHN
OVCAR-3 = system: OVCAR-3
IGROV-1 = system: IGROV-1
CCRF-CEM = system: CCRF-CEM
UO-31 = system: UO-31
NCI-H23 = system: NCI-H23
SNB-78 = system: SNB-78
786-0 = system: 786-0
SK-OV-3 = system: SK-OV-3
M19-MEL = system: M19-MEL
COLO 205 = system: COLO 205
Malme-3M = system: Malme-3M
KM12 = system: KM12
SR = system: SR
NCI-H226 = system: NCI-H226
HOP-62 = system: HOP-62
M14 = system: M14
OVCAR-5 = system: OVCAR-5
SW-620 = system: SW-620
XF498 = system: XF498
TK-10 = system: TK-10
NCI-H522 = system: NCI-H522
SF-539 = system: SF-539
SF-295 = system: SF-295
MOLT-4 = system: MOLT-4
SNB-19 = system: SNB-19
U-251 = system: U-251
SK-MEL-5 = system: SK-MEL-5
DMS-114 = system: DMS-114
NCI-H460 = system: NCI-H460
EKVX = system: EKVX
A498 = system: A498
RXF 393 = system: RXF 393
DMS-273 = system: DMS-273
SN12C = system: SN12C

## COC(=O)c1cc(O)ccc1NC(=O)c1ccc(O)cc1
UACC-257
  GI50: > 100 µM (inactive)
UACC-62
  GI50: > 100 µM (inactive)
LXFL 529
  GI50: > 100 µM (inactive)
OVCAR-8
  GI50: > 100 µM (inactive)
KM-20L2
  GI50: > 100 µM (inactive)
SF-268
  GI50: > 100 µM (inactive)
HCC 2998
  GI50: > 100 µM (inactive)
LOX IMVI
  GI50: > 100 µM (inactive)
HCT-15
  GI50: > 100 µM
RXF 631
  GI50: > 100 µM (inactive)
HT-29
  GI50: > 100 µM (inactive)
HOP-18
  GI50: > 100 µM (inactive)
CAKI-1
  GI50: 79.4 µM (inactive)
HCT-116
  GI50: > 100 µM (inactive)
SNB-75
  GI50: > 100 µM (inactive)
HL-60
  GI50: > 100 µM (inactive)
A549
  GI50: > 100 µM (inactive)
K562
  GI50: > 100 µM (inactive)
HOP-92
  GI50: 87.7 µM (inactive)
SK-MEL-2
  GI50: > 100 µM (inactive)
RPMI-8226
  GI50: > 100 µM (inactive)
SK-MEL-28
  GI50: > 100 µM (inactive)
DLD-1
  GI50: > 100 µM (inactive)
OVCAR-4
  GI50: > 100 µM (inactive)
ACHN
  GI50: > 100 µM (inactive)
OVCAR-3
  GI50: > 100 µM (inactive)
IGROV-1
  GI50: > 100 µM (inactive)
CCRF-CEM
  GI50: > 100 µM (inactive)
UO-31
  GI50: > 100 µM (inactive)
NCI-H23
  GI50: > 100 µM (inactive)
SNB-78
  GI50: > 100 µM (inactive)
786-0
  GI50: > 100 µM (inactive)
SK-OV-3
  GI50: > 100 µM (inactive)
M19-MEL
  GI50: > 100 µM (inactive)
COLO 205
  GI50: > 100 µM (inactive)
Malme-3M
  GI50: > 100 µM (inactive)
KM12
  GI50: > 100 µM (inactive)
SR
  GI50: > 100 µM (inactive)
NCI-H226
  GI50: > 100 µM (inactive)
HOP-62
  GI50: > 100 µM (inactive)
M14
  GI50: > 100 µM (inactive)
OVCAR-5
  GI50: > 100 µM (inactive)
SW-620
  GI50: > 100 µM (inactive)
XF498
  GI50: > 100 µM (inactive)
TK-10
  GI50: 82.2 µM (inactive)
NCI-H522
  GI50: 41.4 µM (inactive)
SF-539
  GI50: > 100 µM (inactive)
SF-295
  GI50: > 100 µM (inactive)
MOLT-4
  GI50: > 100 µM (inactive)
SNB-19
  GI50: > 100 µM (inactive)
U-251
  GI50: > 100 µM (inactive)
SK-MEL-5
  GI50: > 100 µM (inactive)
DMS-114
  GI50: > 100 µM (inactive)
NCI-H460
  GI50: > 100 µM (inactive)
EKVX
  GI50: > 100 µM (inactive)

## [O-][S+]1Nc2c(Cl)cc(Cl)c3c(Cl)cc(Cl)c(c23)N1
UACC-257
  GI50: 54.7 µM (inactive)
UACC-62
  GI50: 22.3 µM (inactive)
LXFL 529
  GI50: 40.3 µM (inactive)
OVCAR-8
  GI50: 32.4 µM (inactive)
KM-20L2
  GI50: 46.5 µM (inactive)
SF-268
  GI50: 34.6 µM (inactive)
HCC 2998
  GI50: 28.4 µM (inactive)
LOX IMVI
  GI50: 32.8 µM (inactive)
HCT-15
  GI50: 32.1 µM
RXF 631
  GI50: 31.8 µM (inactive)
HT-29
  GI50: 41.9 µM (inactive)
HOP-18
  GI50: 34.1 µM (inactive)
CAKI-1
  GI50: 32.4 µM (inactive)
HCT-116
  GI50: 34.1 µM (inactive)
SNB-75
  GI50: 26.1 µM (inactive)
HL-60
  GI50: 34.2 µM (inactive)
A549
  GI50: 29.6 µM (inactive)
K562
  GI50: 41.5 µM (inactive)
HOP-92
  GI50: 21.3 µM (inactive)
SK-MEL-2
  GI50: 47 µM (inactive)
RPMI-8226
  GI50: 37.8 µM (inactive)
SK-MEL-28
  GI50: 62.8 µM (inactive)
DLD-1
  GI50: 28.6 µM (inactive)
OVCAR-4
  GI50: 25.6 µM (inactive)
ACHN
  GI50: 27.7 µM (inactive)
OVCAR-3
  GI50: 30.6 µM (inactive)
IGROV-1
  GI50: 58.5 µM (inactive)
CCRF-CEM
  GI50: 31.6 µM (inactive)
UO-31
  GI50: 51.8 µM (inactive)
NCI-H23
  GI50: 29.1 µM (inactive)
786-0
  GI50: 18.5 µM (inactive)
SK-OV-3
  GI50: 45.7 µM (inactive)
A498
  GI50: 21.9 µM (inactive)
M19-MEL
  GI50: 32.4 µM (inactive)
COLO 205
  GI50: > 100 µM (inactive)
Malme-3M
  GI50: 43.8 µM (inactive)
KM12
  GI50: 44.6 µM (inactive)
RXF 393
  GI50: 21.9 µM (inactive)
NCI-H226
  GI50: 25.1 µM (inactive)
M14
  GI50: 31.8 µM (inactive)
OVCAR-5
  GI50: 27.8 µM (inactive)
SW-620
  GI50: 37.2 µM (inactive)
DMS-273
  GI50: 39.4 µM (inactive)
SN12C
  GI50: 34.6 µM (inactive)
TK-10
  GI50: 42.6 µM (inactive)
NCI-H522
  GI50: 22.7 µM (inactive)
SF-539
  GI50: 36.7 µM (inactive)
SF-295
  GI50: 53.1 µM (inactive)
MOLT-4
  GI50: 22.6 µM (inactive)
SNB-19
  GI50: 40.3 µM (inactive)
U-251
  GI50: 28.2 µM (inactive)
SK-MEL-5
  GI50: 37.8 µM (inactive)
DMS-114
  GI50: 36.3 µM (inactive)
EKVX
  GI50: 59.7 µM (inactive)
